These results are taken from paper PMC11040665, “Aminothiazolone Inhibitors Disrupt the Protein–RNA Interaction of METTL16 and Modulate the m^6A RNA Modification” (JACS Au, 2024).

As usually defined, the Kd is the concentration at which binding is half-saturated.

Test [1] concerns MAT2A mRNA splicing in MDA-MB-231 cells. Briefly: MAT2A splicing by RT-qPCR, MDA-MB-231. The class given is cell-based, human. Conditions: 50 μM, 24 h, 45 potassium salt used. As to the method:
(§1) MDA-MB-231 cells and A549 cells were seeded into 6-well plates at 70% confluency and cultured overnight. Afterward they were treated with compound 45 potassium salt for 24 h. After the compound treatment, the cell culture medium was discarded and cells were washed with DPBS three times. The total RNA was then purified using RNeasy Mini Kit (Qiagen 74106) following the manufacturer’s protocol.
The reverse transcription was performed by using High-Capacity cDNA Reverse Transcription Kits (Thermo Fisher 4368814) with 500 ng of total RNA. qPCR was performed using PowerUp SYBR Green Master Mix (Thermo Fisher, A25742) with a 10 μL volume. The cycling was performed using Bio-Rad CFX96 Real-Time PCR Detection System following the standard cycling mode (primer Tm ≥ 60 °C) on the manufacturer’s protocol. The p value was calculated using GraphPad Prism software’s one-way ANOVA analysis.
A general note: In qPCR the cycle at which signal appears reflects the starting amount.

In test [2] the test system is total RNA m^6A level in A549 cells. Briefly: Total RNA m6A level by dot blot, A549. The class given is cell-based, human. The settings on record: 50 μM, 24 h, 45 potassium salt used. As to the method: as §1
Concentrations of the total RNA were measured by NanoDrop and each sample was calibrated to the same concentration using RNase-free water. RNA samples were heated at 95 °C for 3 min and immediately chilled on ice to disrupt the secondary structures. The total RNA (1 μg) was dropped onto a positively charged nylon membrane (Invitrogen, AM10102). The membrane with RNA side up was immediately transferred to the UVP Cross-linker (Analytik Jena) with […] bulb and cross-linked under the UV light for 5 min two times, then the membrane was washed in TBST (1xTBS with 0.1% Tween 20) for 10 min at room temperature and blocked with 5% skimmed milk in TBST for 1 h at room temperature. The membrane was incubated with the anti-m^6A antibody (Synaptic systems 202003, 1 μg/mL) overnight at 4 °C. […] The membrane was further washed with TBST and detected with the Amersham ECL Prime Western Blotting Detection Reagent. […]

The next test addresses T1, METTL16 MTD (1-291) (Homo sapiens, UniProt Q86W50).
T1 construct: METTL16 MTD (1–291) was subcloned to pOPINB plasmid; His tag followed by HRV 3C cleavage site (N, cleaved yes); made in house; host or cells: E. coli Rosetta (DE3)
T1 sequence (Q86W50 1-291): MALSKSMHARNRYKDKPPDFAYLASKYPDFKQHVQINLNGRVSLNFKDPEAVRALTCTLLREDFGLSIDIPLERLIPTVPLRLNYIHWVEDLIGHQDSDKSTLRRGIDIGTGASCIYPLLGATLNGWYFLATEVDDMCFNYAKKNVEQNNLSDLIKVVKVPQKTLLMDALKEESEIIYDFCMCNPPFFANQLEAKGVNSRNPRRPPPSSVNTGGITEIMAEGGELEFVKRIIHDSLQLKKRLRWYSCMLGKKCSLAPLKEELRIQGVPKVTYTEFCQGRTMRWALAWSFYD
Briefly: Isothermal titration calorimetry (ITC). Conditions: 700 μM METTL16 (1-291) titrated into 50 μM compound, 25 °C. The test is classed as binding. The protocol: ITC was performed by using the MicroCal PEAQ-ITC system (Malvern) at 25 °C. METTL16 MTD protein was directly used after purification. 700 μM protein in SEC buffer (20 mM pH 7.5, 200 mM NaCl, 0.5 mM TCEP,2% v/v glycerol) supplemented with 0.5% DMSO were loaded to the syringe, 50 μM compound in SEC buffer (final 0.5%DMSO) was loaded to the cell, both samples were adjusted to 25 °C and degassed before loading. The experiment was carried out using the reference power of 10, with 19 injections. Data were analyzed using the MicroCal PEAQ-ITC Analysis Software.
Figure S5. Compound Ia as a negative control for DSF assay ,T m values of tested compounds and ITC result of […]
47. […] Data are shown as mean ± SEM, n=4. (B) EMSA assay result of compound Ia. (C) Melting curve of METTL16 in the DSF assay treated with different concentrations of Ia. Data are shown as mean ± SD, n=2. (D) T m values of DMSO control and compound Ia, 27,45,46, and 47, assay was conducted with two biological repeats in duplicate. Data are shown as mean ± SEM, n=4. (E) ITC validation of compound 47, using 700 μM METTL16 (1-291) protein to titrate 50 μM compound 47.
(1 picture or pasted object on this page, not shown here)
(ITC needs no label: the signal is the heat of the interaction.)

For the compound `CN1C(=O)C(=C2SC(NS(=O)(=O)c3ccc(C(=O)O)cc3)=NC2=O)c2cc(Br)ccc21` [Compound 45], the “MAT2A splicing, in words” value in test [1] was “promoted MAT2A splicing”. Further, in test [2], the “total m^6A RNA level, in words” value was “increased the total m^6A mRNA levels”.

Compound `O=C1N=C(NS(=O)(=O)c2ccc(C(=O)O)cc2)SC1=C1C(=O)Nc2ccc(Br)cc21` [Compound 47] came in with a dissociation constant Kd on METTL16 MTD (1-291) of 5.12 µM.
